Measured values: US20260285850A1, “SUBSTITUTED OXAZOLIDINONES AND IMIDAZOLINONES AS HERBICIDES” (FMC CORPORATION, priority 2023, published 2026)

What was measured:
Format in all cases: in vivo
[1] = test system: barnyardgrass (Echinochloa crus-galli); experiment: Test A preemergence soil spray, visual injury rating 0-100; conditions: 10 days
Outline: (§1)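 Compounds formulated in a non-phytotoxic solvent with surfactant are sprayed onto soil of freshly planted loam-sand pots ahead of emergence, or onto emerged plants 2-10 cm tall. After a 10-day greenhouse period, each species is scored visually for injury against untreated controls.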

[2] = test system: blackgrass (Alopecurus myosuroides); experiment: as above; conditions: 10 days
Outline: as §1

corn (Zea mays) [3] = experiment: as above; conditions: 10 days
Outline: as §1

[4] = test system: green foxtail (Setaria viridis); experiment: as above; conditions: 10 days
Outline: as §1

kochia (Bassia scoparia) [5] = experiment: as above; conditions: 10 days
Outline: as §1

[6] = test system: oat, wild (wild oat, Avena fatua); experiment: as above; conditions: 10 days
Outline: as §1

[7] = test system: palmer (palmer amaranth, palmer pigweed, Amaranthus palmeri); experiment: as above; conditions: 10 days
Outline: as §1

[8] = test system: ragweed (common ragweed, Ambrosia artemisiifolia); experiment: as above; conditions: 10 days
Outline: as §1

[9] = test system: ryegrass, Italian (italian ryegrass, Lolium multiflorum); experiment: as above; conditions: 10 days
Outline: as §1

soybean (Glycine max) [10] = experiment: as above; conditions: 10 days
Outline: as §1

[11] = test system: wheat (Triticum aestivum); experiment: as above; conditions: 10 days
Outline: as §1

[12] = test system: barnyardgrass (Echinochloa crus-galli); experiment: Test A postemergence application, visual injury rating 0-100; conditions: for Barnyardgrass plant response rating (0-100): postemergence, 0 = no effect, 100 = complete control; for Barnyardgrass plant response rating (0 to 100 scale): Postemergence
Outline: as §1

[13] = test system: blackgrass (Alopecurus myosuroides); experiment: as above; conditions: for Blackgrass plant response rating (0-100): postemergence, 0 = no effect, 100 = complete control; for Blackgrass plant response rating (0 to 100 scale): Postemergence
Outline: as §1

corn (Zea mays) [14] = experiment: as above; conditions: for Corn plant response rating (0-100): postemergence, 0 = no effect, 100 = complete control; for Corn plant response rating (0 to 100 scale): Postemergence
Outline: as §1

[15] = test system: green foxtail (Setaria viridis); experiment: as above; conditions: for Foxtail, Green plant response rating (0-100): postemergence, 0 = no effect, 100 = complete control; for Foxtail, Green plant response rating (0 to 100 scale): Postemergence
Outline: as §1

[16] = test system: horseweed (Erigeron canadensis); experiment: as above; conditions: for Horseweed plant response rating (0-100): postemergence, 0 = no effect, 100 = complete control; for Horseweed plant response rating (0 to 100 scale): Postemergence
Outline: as §1

kochia (Bassia scoparia) [17] = experiment: as above; conditions: for Kochia plant response rating (0-100): postemergence, 0 = no effect, 100 = complete control; for Kochia plant response rating (0 to 100 scale): Postemergence
Outline: as §1

[18] = test system: oat, wild (wild oat, Avena fatua); experiment: as above; conditions: for Oat, Wild plant response rating (0-100): postemergence, 0 = no effect, 100 = complete control; for Oat, Wild plant response rating (0 to 100 scale): Postemergence
Outline: as §1

[19] = test system: palmer (palmer amaranth, palmer pigweed, Amaranthus palmeri); experiment: as above
Outline: as §1

[20] = test system: ragweed (common ragweed, Ambrosia artemisiifolia); experiment: as above; conditions: for Ragweed plant response rating (0-100): postemergence, 0 = no effect, 100 = complete control; for Ragweed plant response rating (0 to 100 scale): Postemergence
Outline: as §1

[21] = test system: ryegrass, Italian (italian ryegrass, Lolium multiflorum); experiment: as above; conditions: for Ryegrass, Italian plant response rating (0-100): postemergence, 0 = no effect, 100 = complete control; for Ryegrass, Italian plant response rating (0 to 100 scale): Postemergence
Outline: as §1

soybean (Glycine max) [22] = experiment: as above; conditions: for Soybean plant response rating (0-100): postemergence, 0 = no effect, 100 = complete control; for Soybean plant response rating (0 to 100 scale): Postemergence
Outline: as §1

[23] = test system: wheat (Triticum aestivum); experiment: as above; conditions: for Wheat plant response rating (0-100): postemergence, 0 = no effect, 100 = complete control; for Wheat plant response rating (0 to 100 scale): Postemergence
Outline: as §1

[24] = test system: barnyardgrass (Echinochloa crusgalli); experiment: Test B flooded paddy test, visual plant response rating 0-100; conditions: 250 g ai/ha, Flood, applied to paddy water, evaluated after 13 days
Outline: (§2)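 Paddy-water application: test compounds went directly into water flooded 3 cm above the soil surface, with plants at 2 leaves. After a 13-day greenhouse period, responses were judged by eye relative to controls; a dash marks an untested entry.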

[25] = test system: ducksalad (Heteranthera limosa); experiment: as above; conditions: 250 g ai/ha, Flood, applied to paddy water, evaluated after 13 days
Outline: as §2

rice (Oryza sativa) = experiment: as above; conditions: 250 g ai/ha, Flood, applied to paddy water, evaluated after 13 days
Outline: as §2

[26] = test system: sedge, umbrella (small-flower umbrella sedge, Cyperus difformis); experiment: as above; conditions: 250 g ai/ha, Flood, applied to paddy water, evaluated after 13 days
Outline: as §2

[27] = 62 g ai/ha, 0 = no effect, 100 = complete control
[28] = 16 g ai/ha, greenhouse 10 days, 0 no effect, 100 complete control
[29] = 31 g ai/ha, 0 = no effect, 100 = complete control
[30] = 125 g ai/ha, 0 = no effect, 100 = complete control
[31] = 125 g ai/ha, 10 days, 0 is no effect, 100 is complete control

CC(C)OC(=O)C1=CCC(NC(=O)C2(C)CN(c3cc(Cl)cc(Cl)c3)C(=O)O2)C1 (stereo not shown) [Compound 106]
Barnyardgrass plant response rating ([1]; 16 g ai/ha, 0 to 100 scale): 0
Barnyardgrass plant response rating (0-100) [1, 27]: 0
Blackgrass plant response rating ([2]; 16 g ai/ha, 0 to 100 scale): 0
Blackgrass plant response rating (0-100) [2, 27]: 0
Corn plant response rating (corn (Zea mays) [3]; 16 g ai/ha, 0 to 100 scale): 0
Corn plant response rating (0-100) (corn (Zea mays) [3]; [27]): 0
Foxtail, Green plant response rating ([4]; 16 g ai/ha, 0 to 100 scale): 0
Foxtail, Green plant response rating (0-100) [4, 27]: 0
Kochia plant response rating (kochia (Bassia scoparia) [5]; 16 g ai/ha, 0 to 100 scale): 0
Kochia plant response rating (0-100) (kochia (Bassia scoparia) [5]; [27]): 0
Oat, Wild plant response rating ([6]; 16 g ai/ha, 0 to 100 scale): 0
Oat, Wild plant response rating (0-100) [6, 27]: 0
Pigweed, Palmer plant response rating ([7]; 16 g ai/ha, 0 to 100 scale): 0
Pigweed, Palmer plant response rating (0-100) [7, 27]: 0
Ragweed plant response rating ([8]; 16 g ai/ha, 0 to 100 scale): 0
Ragweed plant response rating (0-100) [8, 27]: 0
Ryegrass, Italian plant response rating ([9]; 16 g ai/ha, 0 to 100 scale): 0
Ryegrass, Italian plant response rating (0-100) [9, 27]: 0
Soybean plant response rating (soybean (Glycine max) [10]; 16 g ai/ha, 0 to 100 scale): 0
Soybean plant response rating (0-100) (soybean (Glycine max) [10]; [27]): 0
Wheat plant response rating ([11]; 16 g ai/ha, 0 to 100 scale): 0
Wheat plant response rating (0-100) [11, 27]: 0
Barnyardgrass plant response rating (0-100) ([12]; 62 g ai/ha, 10 days): 0
Barnyardgrass plant response rating (0 to 100 scale) [12, 28]: 0
Blackgrass plant response rating (0-100) ([13]; 62 g ai/ha, 10 days): 0
Blackgrass plant response rating (0 to 100 scale) [13, 28]: 0
Corn plant response rating (0-100) (corn (Zea mays) [14]; 62 g ai/ha, 10 days): 0
Corn plant response rating (0 to 100 scale) (corn (Zea mays) [14]; [28]): 0
Foxtail, Green plant response rating (0-100) ([15]; 62 g ai/ha, 10 days): 0
Foxtail, Green plant response rating (0 to 100 scale) [15, 28]: 0
Horseweed plant response rating (0-100) ([16]; 62 g ai/ha, 10 days): 0
Horseweed plant response rating (0 to 100 scale) [16, 28]: 0
Kochia plant response rating (0-100) (kochia (Bassia scoparia) [17]; 62 g ai/ha, 10 days): 0
Kochia plant response rating (0 to 100 scale) (kochia (Bassia scoparia) [17]; [28]): 0
Oat, Wild plant response rating (0-100) ([18]; 62 g ai/ha, 10 days): 0
Oat, Wild plant response rating (0 to 100 scale) [18, 28]: 0
Pigweed, Palmer plant response rating (0-100) ([19]; 62 g ai/ha, postemergence, 10 days, 0 = no effect, 100 = complete control): 0
Pigweed, Palmer plant response rating (0 to 100 scale) ([19]; Postemergence, 16 g ai/ha, greenhouse 10 days, 0 no effect, 100 complete control): 0
Ragweed plant response rating (0-100) ([20]; 62 g ai/ha, 10 days): 0
Ragweed plant response rating (0 to 100 scale) [20, 28]: 0
Ryegrass, Italian plant response rating (0-100) ([21]; 62 g ai/ha, 10 days): 0
Ryegrass, Italian plant response rating (0 to 100 scale) [21, 28]: 0
Soybean plant response rating (0-100) (soybean (Glycine max) [22]; 62 g ai/ha, 10 days): 0
Soybean plant response rating (0 to 100 scale) (soybean (Glycine max) [22]; [28]): 0
Wheat plant response rating (0-100) ([23]; 62 g ai/ha, 10 days): 0
Wheat plant response rating (0 to 100 scale) [23, 28]: 0
Plant response rating, Barnyardgrass (0 to 100 scale, 0 is no effect and 100 is complete control) [24]: 65
Plant response rating, Ducksalad (0 to 100 scale, 0 is no effect and 100 is complete control) [25]: 85
Plant response rating, Rice (0 to 100 scale, 0 is no effect and 100 is complete control) (rice (Oryza sativa)): 10
Plant response rating, Sedge, Umbrella (0 to 100 scale, 0 is no effect and 100 is complete control) [26]: 98

CNC(=O)C1CC(NC(=O)C2(C)CN(c3cc(F)cc(F)c3)C(=O)O2)CO1 (stereo not shown) [Compound 8]
Barnyardgrass plant response rating (0-100) [1, 29]: 0
Barnyardgrass plant response rating (0 to 100 scale) [1, 30]: 10
Blackgrass plant response rating (0-100) [2, 29]: 0
Blackgrass plant response rating (0 to 100 scale) [2, 30]: 50
Corn plant response rating (0-100) (corn (Zea mays) [3]; [29]): 0
Corn plant response rating (0 to 100 scale) (corn (Zea mays) [3]; [30]): 0
Foxtail, Green plant response rating (0-100) [4, 29]: 0
Foxtail, Green plant response rating (0 to 100 scale) [4, 30]: 40
Kochia plant response rating (0-100) (kochia (Bassia scoparia) [5]; [29]): 0
Kochia plant response rating (0 to 100 scale) (kochia (Bassia scoparia) [5]; [30]): 70
Oat, Wild plant response rating (0-100) [6, 29]: 0
Oat, Wild plant response rating (0 to 100 scale) [6, 30]: 20
Amaranth, Palmer plant response rating (0-100) [7, 29]: 0
Amaranth, Palmer plant response rating (0 to 100 scale) [7, 30]: 0
Ragweed plant response rating (0-100) [8, 29]: 60
Ragweed plant response rating (0 to 100 scale) [8, 30]: 0
Ryegrass, Italian plant response rating (0-100) [9, 29]: 0
Ryegrass, Italian plant response rating (0 to 100 scale) [9, 30]: 60
Soybean plant response rating (0-100) (soybean (Glycine max) [10]; [29]): 0
Soybean plant response rating (0 to 100 scale) (soybean (Glycine max) [10]; [30]): 0
Wheat plant response rating (0-100) [11, 29]: 0
Wheat plant response rating (0 to 100 scale) [11, 30]: 80
Barnyardgrass plant response rating (0-100) ([12]; 31 g ai/ha, 10 days): 0
Barnyardgrass plant response rating (0 to 100 scale) [12, 31]: 0
Blackgrass plant response rating (0-100) ([13]; 31 g ai/ha, 10 days): 0
Blackgrass plant response rating (0 to 100 scale) [13, 31]: 90
Corn plant response rating (0-100) (corn (Zea mays) [14]; 31 g ai/ha, 10 days): 0
Corn plant response rating (0 to 100 scale) (corn (Zea mays) [14]; [31]): 0
Foxtail, Green plant response rating (0-100) ([15]; 31 g ai/ha, 10 days): 0
Foxtail, Green plant response rating (0 to 100 scale) [15, 31]: 0
Horseweed plant response rating (0-100) ([16]; 31 g ai/ha, 10 days): 30
Horseweed plant response rating (0 to 100 scale) [16, 31]: 10
Kochia plant response rating (0-100) (kochia (Bassia scoparia) [17]; 31 g ai/ha, 10 days): 0
Kochia plant response rating (0 to 100 scale) (kochia (Bassia scoparia) [17]; [31]): 20
Oat, Wild plant response rating (0-100) ([18]; 31 g ai/ha, 10 days): 0
Oat, Wild plant response rating (0 to 100 scale) [18, 31]: 0
Amaranth, Palmer plant response rating (0-100) ([19]; 31 g ai/ha, postemergence, 10 days, 0 = no effect, 100 = complete control): 0
Amaranth, Palmer / Pigweed, Palmer plant response rating (0 to 100 scale) ([19]; Postemergence, 125 g ai/ha, 10 days, 0 is no effect, 100 is complete control): 0
Ragweed plant response rating (0-100) ([20]; 31 g ai/ha, 10 days): 0
Ragweed plant response rating (0 to 100 scale) [20, 31]: 0
Ryegrass, Italian plant response rating (0-100) ([21]; 31 g ai/ha, 10 days): 0
Ryegrass, Italian plant response rating (0 to 100 scale) [21, 31]: 0
Soybean plant response rating (0-100) (soybean (Glycine max) [22]; 31 g ai/ha, 10 days): 0
Soybean plant response rating (0 to 100 scale) (soybean (Glycine max) [22]; [31]): 0
Wheat plant response rating (0-100) ([23]; 31 g ai/ha, 10 days): 0
Wheat plant response rating (0 to 100 scale) [23, 31]: 20
Plant response rating, Barnyardgrass (0 to 100 scale, 0 is no effect and 100 is complete control) [24]: 0
Plant response rating, Ducksalad (0 to 100 scale, 0 is no effect and 100 is complete control) [25]: 0
Plant response rating, Rice (0 to 100 scale, 0 is no effect and 100 is complete control) (rice (Oryza sativa)): 0
Plant response rating, Sedge, Umbrella (0 to 100 scale, 0 is no effect and 100 is complete control) [26]: 0
